Columns and labels:
HDAC3 = biological target: T1, HDAC3 (Homo sapiens, UniProt O15379); test: Microfluidic chip-based HDAC inhibition assay (Calliper off-chip mobility shift), HDAC3; format: biochemical; details: duplicate, 10-point dose curve, 3-fold serial dilution from 30 μM; SAHA 15-point dose curve
T1 construct: purchased BPS Bioscience
Source text: (§1) Test compounds were screened against human histone deacetylases (HDACs) 1, 3, 6, and 8 using the Calliper off-chip mobility shift assay technology. All HDACs were purchased from BPS Bioscience and four selective substrates were used according to the targeted isozyme. […] Buffers components, except for CR-3 (LabChip Coating Reagent 3, purchased from PerkinElmer, Product Number 760050) and Panobinostat (LBH589, purchased from ApexBio Technology)[35]^,[36] were purchased from Sigma Aldrich. […] (all purchased from Selleck Chemicals).

HDAC6 = biological target: T2, HDAC6 (Homo sapiens, UniProt Q9UBN7); test: Microfluidic chip-based HDAC inhibition assay (Calliper off-chip mobility shift), HDAC6; format: biochemical
T2 construct: purchased BPS Bioscience
T2 sequence (Q9UBN7 1-1215): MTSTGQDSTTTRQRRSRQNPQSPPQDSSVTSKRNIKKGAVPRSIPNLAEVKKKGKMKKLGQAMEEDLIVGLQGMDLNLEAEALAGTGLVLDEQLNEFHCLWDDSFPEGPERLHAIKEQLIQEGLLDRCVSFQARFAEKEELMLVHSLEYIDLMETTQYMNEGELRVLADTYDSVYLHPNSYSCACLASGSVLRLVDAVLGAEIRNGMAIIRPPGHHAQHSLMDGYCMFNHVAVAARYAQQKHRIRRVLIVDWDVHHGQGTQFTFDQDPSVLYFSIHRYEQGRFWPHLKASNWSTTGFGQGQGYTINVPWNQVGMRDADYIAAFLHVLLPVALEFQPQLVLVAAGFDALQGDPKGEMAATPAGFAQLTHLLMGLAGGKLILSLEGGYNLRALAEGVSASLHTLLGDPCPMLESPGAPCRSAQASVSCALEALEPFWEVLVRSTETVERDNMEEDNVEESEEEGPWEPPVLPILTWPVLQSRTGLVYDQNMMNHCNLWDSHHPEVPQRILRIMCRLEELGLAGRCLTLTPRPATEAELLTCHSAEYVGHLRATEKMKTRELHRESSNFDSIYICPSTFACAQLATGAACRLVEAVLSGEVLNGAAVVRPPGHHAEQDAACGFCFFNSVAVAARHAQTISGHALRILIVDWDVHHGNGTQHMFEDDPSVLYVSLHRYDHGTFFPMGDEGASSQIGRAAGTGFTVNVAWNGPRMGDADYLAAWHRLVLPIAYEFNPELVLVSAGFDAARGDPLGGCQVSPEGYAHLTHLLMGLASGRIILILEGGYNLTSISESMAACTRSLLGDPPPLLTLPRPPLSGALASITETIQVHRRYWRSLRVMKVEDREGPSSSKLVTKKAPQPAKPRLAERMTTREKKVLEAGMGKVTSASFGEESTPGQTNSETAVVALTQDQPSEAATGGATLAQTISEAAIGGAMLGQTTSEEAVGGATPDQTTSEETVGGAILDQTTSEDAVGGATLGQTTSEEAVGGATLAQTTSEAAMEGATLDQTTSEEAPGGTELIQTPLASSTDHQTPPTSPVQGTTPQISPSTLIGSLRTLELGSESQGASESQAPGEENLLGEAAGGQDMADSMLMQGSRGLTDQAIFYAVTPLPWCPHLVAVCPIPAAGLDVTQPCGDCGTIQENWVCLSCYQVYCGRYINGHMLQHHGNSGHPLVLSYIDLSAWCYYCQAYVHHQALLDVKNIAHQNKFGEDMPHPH
Source text: as §1

[1] = test system: HDAC target genes (RAD54L, RAD51, CLU, DHRS2, CDKN1A) in 92.1 cells; test: QRT-PCR of mRNA levels of HDAC target genes, 92.1 cells; format: cell-based, human; details: 10 µM compound, 48 h, normalised to GAPDH
Protocol: Finally, we determined if the treatment of UM cells 92.1 and Mel270 with our compounds could modify the mRNA levels of HDAC target genes. […]
Figure 9. Modulation of RAD54L, RAD51 and CLU mRNA expression by the different compounds in UM cells 92.1 and Mel270. Cells were treated for 48 h with 10 µM compound or the corresponding amount of DMSO. Data, normalised to GAPDH housekeeping gene, are expressed as fold change relative to the DMSO control. Error bars represent SD of triplicates. One representative experiment is shown.
Treatments with the compounds were performed with slight differences, according to the final use of the samples. For the cell viability assay with MTT, cells were seeded in 96-well flat-bottom plates in culture medium at 5 × 10^3 cells/well, whereas for cell cycle analysis and QRT-PCR cells were seeded in 24-well plates at 5 × 10^4 cells/well. The day after, a culture medium containing the appropriate amount of compounds or their solvent control DMSO was added, and treatments were carried out for the indicated time.
To assess the modulation of gene expression, cells were harvested at 48 h of treatment and total RNA was isolated using the NucleoSpin RNA kit (Macherey-Nagel) and reverse-transcribed with the SuperScript III Reverse Transcriptase (Invitrogen). […] Expression levels of mRNAs relative to untreated control were calculated by the ΔΔCT method (Table 3).

T1 sequence (O15379 whole entry): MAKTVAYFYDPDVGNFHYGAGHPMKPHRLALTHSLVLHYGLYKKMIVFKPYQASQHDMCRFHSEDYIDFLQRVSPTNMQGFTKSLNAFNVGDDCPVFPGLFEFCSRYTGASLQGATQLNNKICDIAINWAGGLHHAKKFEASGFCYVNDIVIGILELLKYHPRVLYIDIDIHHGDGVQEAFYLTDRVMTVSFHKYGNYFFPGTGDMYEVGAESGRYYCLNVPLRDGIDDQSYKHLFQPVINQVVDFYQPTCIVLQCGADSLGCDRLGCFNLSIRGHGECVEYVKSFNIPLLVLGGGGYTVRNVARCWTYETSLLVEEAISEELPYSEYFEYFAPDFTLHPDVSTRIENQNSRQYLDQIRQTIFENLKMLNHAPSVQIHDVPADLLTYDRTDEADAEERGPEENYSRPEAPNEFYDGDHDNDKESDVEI
T1 sequence (Q9Y618 395-489 partner limits assumed): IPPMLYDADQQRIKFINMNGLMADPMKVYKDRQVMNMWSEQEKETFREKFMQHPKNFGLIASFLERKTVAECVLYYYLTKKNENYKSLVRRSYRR

`O=C(CCCCO/N=C/c1cnc2ccccc2c1)NO` [Compound 2f, (E)-N-hydroxy-5-(((quinolin-3-ylmethylene)amino)oxy)pentanamide] was tested, and the IC50 (HDAC3) was 40 nM, the IC50 (HDAC6) was 10 nM and the “times less active than SAHA on HDAC6” value (HDAC6; compared with SAHA) was 7 times. The “modulation of mRNA levels of HDAC target genes” value [1] was “induced a pattern of gene modulation, which overlapped that of SAHA”.

Source: PMC7594840, “Identification of histone deacetylase inhibitors with (arylidene)aminoxy scaffold active in uveal melanoma cell lines” (Journal of Enzyme Inhibition and Medicinal Chemistry, 2020)
